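Here, GI50 denotes the concentration required for 50% inhibition of growth. At the TGI there is no net growth.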
Tests used:
Test in all cases: NCI tumour cell line growth inhibition, 384-well format
HOP-92 NSCLC = tested on: HOP-92 NSCLC
NCI/ADR-RES ovarian = tested on: NCI/ADR-RES ovarian
NCI-H460 NSCLC = tested on: NCI-H460 NSCLC
SK-MEL-28 melanoma = tested on: SK-MEL-28 melanoma
MDA-MB-468 breast = tested on: MDA-MB-468 breast
MDA-MB-231 breast = tested on: MDA-MB-231 breast
K-562 leukemia = tested on: K-562 leukemia
SNB-19 CNS = tested on: SNB-19 CNS
SR leukemia = tested on: SR leukemia
NCI-H226 lung = tested on: NCI-H226 lung
CCRF-CEM leukemia = tested on: CCRF-CEM leukemia
KM12 colon = tested on: KM12 colon
HT29 colon = tested on: HT29 colon
ACHN renal = tested on: ACHN renal
TK-10 renal = tested on: TK-10 renal
EKVX NSCLC = tested on: EKVX NSCLC
HCT-15 colon = tested on: HCT-15 colon
SF-539 CNS = tested on: SF-539 CNS
HS 578T breast = tested on: HS 578T breast
RXF 393 renal = tested on: RXF 393 renal
RPMI-8226 leukemia = tested on: RPMI-8226 leukemia
PC-3 prostate = tested on: PC-3 prostate
UO-31 renal = tested on: UO-31 renal
OVCAR-3 ovarian = tested on: OVCAR-3 ovarian
NCI-H322M lung = tested on: NCI-H322M lung
SF-268 CNS = tested on: SF-268 CNS
OVCAR-8 ovarian = tested on: OVCAR-8 ovarian
SN12C renal = tested on: SN12C renal
MCF7 breast = tested on: MCF7 breast
COLO 205 colon = tested on: COLO 205 colon
NCI-H522 lung = tested on: NCI-H522 lung
UACC-62 melanoma = tested on: UACC-62 melanoma
MOLT-4 leukemia = tested on: MOLT-4 leukemia
SK-OV-3 ovarian = tested on: SK-OV-3 ovarian
OVCAR-4 ovarian = tested on: OVCAR-4 ovarian
DU-145 prostate = tested on: DU-145 prostate
CAKI-1 renal = tested on: CAKI-1 renal
MDA-MB-435 melanoma = tested on: MDA-MB-435 melanoma
T-47D breast = tested on: T-47D breast
A549 NSCLC = tested on: A549 NSCLC
HL-60(TB) leukemia = tested on: HL-60(TB) leukemia
MALME-3M melanoma = tested on: MALME-3M melanoma
SNB-75 CNS = tested on: SNB-75 CNS
LOX IMVI melanoma = tested on: LOX IMVI melanoma
BT-549 breast = tested on: BT-549 breast
A498 renal = tested on: A498 renal
SF-295 CNS = tested on: SF-295 CNS
U251 glioblastoma = tested on: U251 glioblastoma
UACC-257 melanoma = tested on: UACC-257 melanoma
HOP-62 NSCLC = tested on: HOP-62 NSCLC
HCT-116 colon = tested on: HCT-116 colon
IGROV1 ovarian = tested on: IGROV1 ovarian
NCI-H23 lung = tested on: NCI-H23 lung
SK-MEL-5 melanoma = tested on: SK-MEL-5 melanoma
SW-620 colon = tested on: SW-620 colon
786-0 renal = tested on: 786-0 renal
M14 melanoma = tested on: M14 melanoma
HCC-2998 colon = tested on: HCC-2998 colon

## Cc1cc(O)c(-c2ccc([C@@H](C)CN(C)C)cc2)c2c1[nH]c(=O)c1sccc12
HOP-92 NSCLC
  GI50: 357 nM
  TGI: 2120 nM
NCI/ADR-RES ovarian
  GI50: 2060 nM
  TGI: 4650 nM
NCI-H460 NSCLC
  GI50: 186 nM
  TGI: 341 nM
SK-MEL-28 melanoma
  GI50: 284 nM
  TGI: 1610 nM
MDA-MB-468 breast
  GI50: 27.8 nM
  TGI: 67.1 nM
MDA-MB-231 breast
  GI50: 265 nM
  TGI: 682 nM
K-562 leukemia
  GI50: 295 nM
  TGI: 746 nM
SNB-19 CNS
  GI50: 335 nM
  TGI: 1110 nM
SR leukemia
  GI50: 75.7 nM
  TGI: 179 nM
NCI-H226 lung
  GI50: 285 nM
  TGI: 662 nM
CCRF-CEM leukemia
  GI50: 199 nM
  TGI: 399 nM
KM12 colon
  GI50: 286 nM
  TGI: 850 nM
HT29 colon
  GI50: 1780 nM
  TGI: 3270 nM
ACHN renal
  GI50: 357 nM
  TGI: 1240 nM
TK-10 renal
  GI50: 265 nM
  TGI: 713 nM
EKVX NSCLC
  GI50: 451 nM
  TGI: 1500 nM
HCT-15 colon
  GI50: 378 nM
  TGI: 1390 nM
SF-539 CNS
  GI50: 133 nM
  TGI: 369 nM
HS 578T breast
  GI50: 129 nM
  TGI: 289 nM
RXF 393 renal
  GI50: 14.6 nM
  TGI: 31.7 nM
RPMI-8226 leukemia
  GI50: 36.8 nM
  TGI: 108 nM
PC-3 prostate
  GI50: 286 nM
  TGI: 757 nM
UO-31 renal
  GI50: 266 nM
  TGI: 663 nM
OVCAR-3 ovarian
  GI50: 189 nM
  TGI: 381 nM
NCI-H322M lung
  GI50: 411 nM
  TGI: 1210 nM
SF-268 CNS
  GI50: 338 nM
  TGI: 1420 nM
OVCAR-8 ovarian
  GI50: 223 nM
  TGI: 447 nM
SN12C renal
  GI50: 224 nM
  TGI: 571 nM
MCF7 breast
  GI50: 63.6 nM
  TGI: 217 nM
COLO 205 colon
  GI50: 1990 nM
  TGI: 4050 nM
NCI-H522 lung
  GI50: 180 nM
  TGI: 350 nM
UACC-62 melanoma
  GI50: 283 nM
  TGI: 888 nM
MOLT-4 leukemia
  GI50: 156 nM
  TGI: 295 nM
SK-OV-3 ovarian
  GI50: 171 nM
  TGI: 410 nM
OVCAR-4 ovarian
  GI50: 199 nM
  TGI: 400 nM
DU-145 prostate
  GI50: 279 nM
  TGI: 706 nM
CAKI-1 renal
  GI50: 292 nM
  TGI: 996 nM
MDA-MB-435 melanoma
  GI50: 444 nM
  TGI: 1430 nM
T-47D breast
  GI50: 1200 nM
  TGI: 5800 nM
A549 NSCLC
  GI50: 225 nM
  TGI: 482 nM
HL-60(TB) leukemia
  GI50: 19.7 nM
  TGI: 37.5 nM
MALME-3M melanoma
  GI50: 1000 nM
  TGI: 2190 nM
SNB-75 CNS
  GI50: 159 nM
  TGI: 753 nM
LOX IMVI melanoma
  GI50: 253 nM
  TGI: 580 nM
BT-549 breast
  GI50: 192 nM
  TGI: 451 nM
A498 renal
  GI50: 160 nM
  TGI: 319 nM
SF-295 CNS
  GI50: 1810 nM
  TGI: 3680 nM
U251 glioblastoma
  GI50: 173 nM
  TGI: 1100 nM
UACC-257 melanoma
  GI50: 831 nM
  TGI: 2090 nM
HOP-62 NSCLC
  GI50: 206 nM
  TGI: 401 nM
HCT-116 colon
  GI50: 200 nM
  TGI: 383 nM
IGROV1 ovarian
  GI50: 362 nM
  TGI: 1270 nM
NCI-H23 lung
  GI50: 212 nM
  TGI: 446 nM
SK-MEL-5 melanoma
  GI50: 233 nM
  TGI: 547 nM
SW-620 colon
  GI50: 443 nM
  TGI: 1260 nM
786-0 renal
  GI50: 50 nM
  TGI: 193 nM
M14 melanoma
  GI50: 413 nM
  TGI: 1250 nM
HCC-2998 colon
  GI50: 197 nM
  TGI: 467 nM
